{
  "source": "patent US20250108213A1",
  "about": "“COMPOSITIONS AND METHODS FOR ENHANCING THE EFFECT OF PLATINUM-BASED SYSTEMIC THERAPY” (NOVOCURE GMBH, priority 2023, published 2025)",
  "key": {"[1]": {"test_system": "γH2AX foci in cell nuclei", "test": "DNA damage examination by fluorescence microscopy", "assay_type": "cell-based, human", "conditions": "treatment alone, all cell lines (A2780, OVCAR-3, A2780cis), relative to control", "experimental": "For DNA damage and cell cycle examination, the following drug concentrations were selected: For A2780—6 μM carboplatin, 1 μM olaparib, and 0.5 μM niraparib; For OVCAR-3-16 μM carboplatin, 0.5 μM olaparib, and 0.8 μM niraparib; For A2780cis—36 μM carboplatin, 10 μM olaparib, and 1.5 μM niraparib. Treated cells were fixed with 4% paraformaldehyde for 10 min, permeabilized for 20 min with 0.5% Triton X-100 in PBS, and blocked with donkey serum (PBS with 0.3% Triton X-100 and donkey serum 1:100). Cells were incubated at 4° C. overnight with anti-γH2AX antibody (Cell Signaling, Danvers, MA, USA; #9718, 1:400), followed by incubation at room temperature for 1 hr with Alexa Flour 488-conjugated secondary antibody (Jackson Immunoresearch, Cambridge, UK; #711-545-152, 1:500) and […] 4′,6-diamidino-2-phenylindole (DAPI; Sigma Aldrich, Rehovot, Israel). LSM 700 laser scanning confocal system (Zeiss, Gottingen, Germany) was utilized to obtain images, and the mean number of foci per nucleus was determined using the FIJI software with the BioVoxxel plugin."}, "A2780cis cells": {"test_system": "A2780cis cells", "test": "Apoptosis, Annexin V/7-AAD staining, flow cytometer", "assay_type": "cell-based, human", "conditions": "TTFields applied with drug", "experimental": "Apoptosis was also examined. Treated cells were double-stained with FITC-conjugated annexin V (AnnV) and 7-aminoactinomycin D (7AAD), and data acquisition was performed with a flow cytometer.\nTreated cells were double-stained with FITC-conjugated annexin V (AnnV) and 7-aminoactinomycin D (7AAD), and data acquisition was performed with a flow cytometer.\n(§1) Treated cells were stained with FITC-conjugated Annexin V (AnnV) and 7-Aminoactinomycin D (7-AAD) using a commercial kit (BioLegend, San Diego, CA, USA), according to the manufacturer's instruction. Data acquisition and analysis were done on the Cytek Northern Lights flow cytometer"}, "[2]": {"test_system": "orthotopic ID8-fLuc (HRP) ovarian cancer tumors", "test": "Overall survival of ovarian cancer bearing mice", "assay_type": "in vivo", "experimental": "Murine experiments were approved by the KU Leuven ethical committee (P082/2021). NIH guidelines for the Care and Use of Laboratory Animals were followed along with the 2010/62/EU directive and the ARRIVE (Animal Research: Reporting of In Vivo Research: Reporting of In Vivo Experiments) guidelines. Syngeneic ID8-fluc cells were harvested using 0.05% Trypsin-EDTA and inoculated (5×10^6 cells in 100 μL DPBS) intraperitoneally in female C57BL/6 mice (six- to eight-week-old, obtained from Envigo (Horst, The Netherlands)), leading to the development of a stage III-IV ovarian cancer model.\nSeven days post inoculation, treatment was initiated. Mice were divided into four groups receiving either, sham-heat and vehicle (n=8), sham-heat and olaparib (n=8), TTFields and vehicle (n=7) or TTFields and olaparib (n=11). TTFields treatment (200 kHz) was administered continuously using the in vivo system (Novocure, Israel) by applying electrode arrays to the shaven abdomen of the mice as previously described. Sham-heat used analogous non-therapeutic arrays. Olaparib (MedKoo Biosciences, USA) was dissolved in a vehicle of 10% DMSO, 50% PEG300 and 40% DPBS and administered at a concentration of 50 mg/kg/day through daily oral gavage. Overall, therapeutic interventions lasted for four weeks, given in four cycles of five consecutive treatment days, followed by two days without treatment.\nMice were followed up and weighed daily once ascites development started as indicated by the appearance of abdominal distention. Mice were sacrificed when their body weight reached ≥32 grams as a surrogate endpoint for survival."}, "OVCAR-3 cells [3]": {"test_system": "OVCAR-3 cells", "test": "Apoptosis, Annexin V/7-AAD staining, flow cytometer", "assay_type": "cell-based, human", "conditions": "TTFields applied with drug", "experimental": "Apoptosis: Treated cells were double-stained with FITC-conjugated annexin V (AnnV) and 7-aminoactinomycin D (7AAD), and data acquisition was performed with a flow cytometer.\nas §1"}, "OVCAR-3 cells [4]": {"test_system": "OVCAR-3 cells", "experimental": "(§2) Cells were seeded on coverslip (22 mm diameter; 20×10^3 cells/coverslip for A2780 and A2780cis; 40×10^3 cells/coverslip for OVCAR-3). After overnight incubation, the coverslips were transferred into in vitro dishes containing 2 ml of media. TTFields at a frequency of 200 kHz (and intensity of 1 V/cm RMS) were applied to the cells for 72 hr using the INOVITRO system (Novocure, Haifa, Israel).\n(§3) For efficacy outcomes (cell count, overall effect, and apoptosis), various concentrations of carboplatin (MCE MedChemExpress, HY-17393), olaparib (Cayman Chemical, 10621), or niraparib (Cayman Chemical, 20842) were applied, with or without TTFields.\n(§4) Cell count was examined following treatment using Cytek Northern Lights flow cytometer (Cytek Biosciences, USA).\n(§5) Treated cells were harvested, re-plated in 6-well plates (500 cells/well for A2780 and A2780cis; 1000 for cells/well OVCAR-3), and grown for 7 (A2780 and A2780cis) or 21 (OVCAR-3) days. Colonies were stained with 0.5% crystal violet, quantified with ImageJ, and expressed as percentages relative to control. Overall effect was calculated by multiplying colony formation with the corresponding cell count.\n(§6) The surviving fraction predicted for an additive effect between TTFields and drug was calculated per the various drug concentrations by multiplying the actual measured surviving fractions for the individual treatments one by the other (SFcalculated additive=SFTTFields×SFdrug; SF are expressed as probability). Based on the calculated values, a trendline was determined. Additivity, synergy, or antagonism was defined when the calculated additive trendline overlapped, was above, or was below the actual measured line for TTFields+drug, respectively.\n(§7) For quantifying the magnitude of TTFields-drug interaction, interaction index (Ii) values were calculated by the Bliss independence method using mortality values (Mx=1−SFx). Per the various drug concentrations, mortality predicted for an additive effect between TTFields and drug (Mcalculated additive=MTTFields+Mdrug−MTTFields×Mdrug) was divided by the actual measured mortality for TTFields+drug. Additivity was determined when the 95% confidence interval (CI) overlapped 1, synergy when 95% CI<1, and antagonism when 95% CI>1. Lower Ii values were considered indicative of higher synergy levels."}, "A2780 cells": {"test_system": "A2780 cells", "experimental": "as §2, §3, §4, §5, §6, §7"}, "[5]": {"conditions": "TTFields 200 kHz, 1 V/cm RMS, 72 h"}, "[6]": {"conditions": "TTFields plus drug vs drug alone"}, "[7]": {"conditions": "TTFields plus drug vs drug alone, p<0.0001"}},
  "note": "“Also recorded” adds a separate entry of the source.",
  "data": [
    {"molecule": "O=C(c1cc(Cc2n[nH]c(=O)c3ccccc23)ccc1F)N1CCN(C(=O)C2CC2)CC1", "note": "[olaparib]", "values": [
      {"measurement": "levels of γH2AX foci, monotherapy", "setting": "[1]", "value": "mild elevation"},
      {"measurement": "effect of TTFields on the apoptotic effect / apoptotic cell fraction", "setting": "A2780cis cells", "value": "elevation"},
      {"measurement": "median overall survival, TTFields plus olaparib", "setting": "[2]; TTFields (200 kHz) plus olaparib 50 mg/kg/day, control 62 days", "value": 70, "unit": "days"},
      {"measurement": "median overall survival, monotherapy", "setting": "[2]; monotherapy, control 62 days", "value": 64.5, "unit": "days"},
      {"measurement": "survival compared to control mice, monotherapy", "setting": "[2]; olaparib only, p=0.0401", "value": "survival benefit"},
      {"measurement": "survival, TTFields plus olaparib compared to control and monotherapies", "setting": "[2]; p=0.0003 vs control, p=0.0003 vs olaparib, p=0.0130 vs TTFields", "value": "significantly prolonged"},
      {"measurement": "effect of TTFields on the apoptotic effect / apoptotic cell fraction", "setting": "OVCAR-3 cells [3]", "value": "enhanced; also recorded: elevation"},
      {"measurement": "type of TTFields-drug interaction (measured vs calculated additive curve)", "setting": "OVCAR-3 cells [4]; HRD cells, TTFields 200 kHz, 1 V/cm RMS, 72 h", "value": "additively"},
      {"measurement": "type of TTFields-drug interaction, overall effect (cell count and clonogenic effect)", "setting": "OVCAR-3 cells [4]; [5]", "value": "additive"},
      {"measurement": "type of TTFields-drug interaction, cytotoxic effect (cell count)", "setting": "OVCAR-3 cells [4]; TTFields 200 kHz, 1 V/cm RMS, 72 h, BRCA mutant", "value": "additively"},
      {"measurement": "effect of TTFields on the drug-induced overall effect (cell count x colony formation)", "setting": "OVCAR-3 cells [4]; [6]", "value": "significantly augmented"},
      {"measurement": "effect of TTFields on the drug-induced effect, cell count", "setting": "OVCAR-3 cells [4]; [7]", "value": "significantly augmented"},
      {"measurement": "sensitivity to drug (cell count dose response)", "setting": "OVCAR-3 cells [4]; drug alone, 72 h, compared among A2780, OVCAR-3, A2780cis", "value": "highest sensitivity"},
      {"measurement": "type of TTFields-drug interaction, cytotoxic effect (cell count)", "setting": "A2780 cells", "value": "synergistically"},
      {"measurement": "level of TTFields-drug synergy", "setting": "A2780 cells; A2780 relative to A2780cis cells, by Ii", "value": "higher"},
      {"measurement": "type of TTFields-drug interaction (measured vs calculated additive curve)", "setting": "A2780 cells; HRP cells, TTFields 200 kHz, 1 V/cm RMS, 72 h", "value": "high synergy"},
      {"measurement": "type of TTFields-drug interaction, overall effect (cell count and clonogenic effect)", "setting": "A2780 cells; [5]", "value": "synergistically"},
      {"measurement": "effect of TTFields on the drug-induced overall effect (cell count x colony formation)", "setting": "A2780 cells; [6]", "value": "significantly augmented"},
      {"measurement": "effect of TTFields on the drug-induced effect, cell count", "setting": "A2780 cells; [7]", "value": "significantly augmented"}
    ]}
  ]
}
